pIC50: −log10 of the molar value. Where a name gives a salt, the structure may show the parent alone.
Key:
[1] = biological target: T1, hNav1.7 (Homo sapiens (Human), UniProt Q15858); assay: Tritiated compound binding to membranes from cells heterologously expressing hNav1.7 and the β1 subunit (Nav1.7 LBA); details: competitive binding vs [3H]compound, membranes with hNav1.7 and β1 subunit; read-out: Nav1.7 LBA EVO IC50
Protocol: Example 93A. Tritiated Compound Binding to Membranes Isolated from Cells that Heterologously Express hNav1.7 and the β1 Subunit
Preparation of membranes containing recombinantly expressed sodium channels: Frozen recombinant cell pellets are thawed on ice and diluted to 4 times the cell pellet weight with ice cold 50 mM Tris HCl, pH 7.4 buffer. The cell suspensions are homogenized on ice using a motorized glass dounce homogeniser. Homogenates are further diluted 8.4 times with ice cold 50 mM Tris HCl, pH 7.4 buffer and then centrifuged at 200×g at 4° C. for 15 minutes. The supernatants are collected and centrifuged at 10000×g at 4° C. for 50 min. The pellets are then re-suspended in 100 mM NaCl, 20 mM Tris HCl, pH 7.4 buffer containing 1% v/v protease inhibitors (Calbiochem) and re-homogenized on ice. The homogenized membranes are then processed through a syringe equipped with a 26 gauge needle. Protein concentrations arer determined by Bradford Assay and the membranes are stored at −80° C.
Saturation experiments. A competitive NaV1.7 inhibitor having a methyl group is tritiated. Three tritiums are incorporated in place of methyl hydrogens to generate [^3H]compound. Binding of this radioligand is performed in 5 mL borosilicate glass test tubes at room temperature. Binding is initiated by adding membranes to increasing concentrations of [^3H]compound in 100 mM NaCl, 20 mM Tris HCl, pH 7.4 buffer containing 0.01% w/v bovine serum albumin (BSA) for 18 h. Non-specific binding is determined in the presence of 1 μM unlabeled compound. After 18 h, the reactants are filtered through GF/C glass fiber filters presoaked in 0.5% w/v polyethylene imine. Filters are washed with 15 mL ice cold 100 mM NaCl, 20 mM Tris HCl, pH7.4 buffer containing 0.25% BSA to separate bound from free ligand. [^3H]compound bound to filters is quantified by liquid scintillation counting.
Binding reactions are performed in 96-well polypropylene plates at room temperature for 18 h. In 360 μL, membranes are incubated with […] [^3H]compound and increasing concentrations of Test Compound. Non-specific binding is defined in the presence of 1 μM unlabeled compound. Reactions are transferred and filtered through 96-well glass fiber/C filter plates presoaked with 0.5% polyethylene imine. The filtered reactions are washed 5 times with 200 μL ice cold buffer containing 0.25% BSA. Bound radioactivity is determined by liquid scintillation counting.
Data Analysis: For saturation experiments, non-specific binding is subtracted from total binding to provide specific binding and these values are recalculated in terms of pmol ligand bound per mg protein. Saturation curves are constructed and dissociation constants are calculated using the single site ligand binding model: Beq=(Bmax*X)/(X+Kd), where Beq is the amount of ligand bound at equilibrium, Bmax is the maximum receptor density, Kd is the dissociation constant for the ligand, and X is the free ligand concentration. For competition studies percent inhibition is determined and IC50 values are calculated using a 4 parameter logistic model (% inhibition=(A+((B−A)/(1+((x/C)^D)))) using XLfit, where A and B are the maximal and minimum inhibition respectively, C is the IC50 concentration and D is the (Hill) slope.
Example 93B. Tritiated Compound Binding to Membranes Isolated from Cells that Heterologous Express hNav1.7 and the β1 Subunit
Following the procedure described in Example 93A, and making modifications as required to: centrifuge supernatants at 100000×g instead of 10000×g; re-suspend pellets in a buffer containing 0.01% BSA in addition to 100 mM NaCl, 20 mM Tris HCl, pH 7.4 buffer, and 1% v/v proteasome inhibitors; and storing membranes at −80° C. in single use aliquots instead of pooled. […]
Target sequence in this assay (Q15858 whole entry, looked up): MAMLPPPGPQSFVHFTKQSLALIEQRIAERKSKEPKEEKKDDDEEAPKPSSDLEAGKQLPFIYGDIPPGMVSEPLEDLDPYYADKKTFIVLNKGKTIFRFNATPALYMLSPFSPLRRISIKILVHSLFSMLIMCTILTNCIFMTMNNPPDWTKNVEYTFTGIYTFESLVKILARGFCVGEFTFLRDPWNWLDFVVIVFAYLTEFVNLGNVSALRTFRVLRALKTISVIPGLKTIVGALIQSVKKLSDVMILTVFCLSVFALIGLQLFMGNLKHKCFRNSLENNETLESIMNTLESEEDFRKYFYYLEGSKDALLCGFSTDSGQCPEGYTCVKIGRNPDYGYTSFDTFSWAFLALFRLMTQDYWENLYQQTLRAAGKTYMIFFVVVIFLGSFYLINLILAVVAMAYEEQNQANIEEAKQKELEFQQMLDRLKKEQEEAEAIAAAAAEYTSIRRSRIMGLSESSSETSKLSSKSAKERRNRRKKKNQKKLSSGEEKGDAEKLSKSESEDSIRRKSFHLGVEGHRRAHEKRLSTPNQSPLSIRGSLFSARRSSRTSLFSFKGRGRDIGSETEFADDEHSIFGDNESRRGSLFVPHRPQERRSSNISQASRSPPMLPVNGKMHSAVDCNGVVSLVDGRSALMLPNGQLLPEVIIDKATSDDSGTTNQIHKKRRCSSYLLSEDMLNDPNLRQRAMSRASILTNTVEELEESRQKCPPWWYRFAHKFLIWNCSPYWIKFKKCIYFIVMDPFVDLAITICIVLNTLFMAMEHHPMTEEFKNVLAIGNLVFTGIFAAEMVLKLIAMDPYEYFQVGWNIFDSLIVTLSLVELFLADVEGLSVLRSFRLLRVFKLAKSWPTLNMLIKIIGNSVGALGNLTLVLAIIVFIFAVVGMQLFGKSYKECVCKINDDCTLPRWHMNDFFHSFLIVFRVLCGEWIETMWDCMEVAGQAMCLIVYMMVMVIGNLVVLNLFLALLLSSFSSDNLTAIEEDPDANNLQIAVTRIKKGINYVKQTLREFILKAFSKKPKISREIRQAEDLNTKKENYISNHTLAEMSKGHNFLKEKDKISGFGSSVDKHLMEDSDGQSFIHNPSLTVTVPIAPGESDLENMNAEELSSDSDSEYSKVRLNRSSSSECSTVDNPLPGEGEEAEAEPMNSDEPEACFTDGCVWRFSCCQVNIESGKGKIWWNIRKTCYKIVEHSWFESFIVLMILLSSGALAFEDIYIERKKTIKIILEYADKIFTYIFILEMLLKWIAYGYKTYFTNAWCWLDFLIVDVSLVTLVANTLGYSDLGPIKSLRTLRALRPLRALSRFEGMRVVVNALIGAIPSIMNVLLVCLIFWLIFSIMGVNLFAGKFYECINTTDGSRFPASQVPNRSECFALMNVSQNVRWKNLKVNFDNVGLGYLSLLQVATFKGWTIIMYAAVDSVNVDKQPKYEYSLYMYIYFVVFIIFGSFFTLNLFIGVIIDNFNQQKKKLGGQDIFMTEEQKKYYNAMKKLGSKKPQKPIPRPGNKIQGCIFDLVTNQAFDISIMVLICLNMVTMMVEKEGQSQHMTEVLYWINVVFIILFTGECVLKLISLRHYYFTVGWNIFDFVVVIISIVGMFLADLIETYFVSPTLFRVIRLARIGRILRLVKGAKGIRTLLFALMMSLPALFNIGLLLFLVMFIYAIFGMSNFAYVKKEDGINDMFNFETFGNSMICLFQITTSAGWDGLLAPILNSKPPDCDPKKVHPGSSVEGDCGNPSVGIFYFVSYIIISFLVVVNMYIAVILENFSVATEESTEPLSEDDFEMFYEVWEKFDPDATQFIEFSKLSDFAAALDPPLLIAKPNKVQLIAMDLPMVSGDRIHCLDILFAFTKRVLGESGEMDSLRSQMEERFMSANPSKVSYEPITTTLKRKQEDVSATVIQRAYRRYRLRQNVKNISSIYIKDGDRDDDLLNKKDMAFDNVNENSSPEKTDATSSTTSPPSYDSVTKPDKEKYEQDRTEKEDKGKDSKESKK
Target sequence in this assay (Q07699 whole entry partner, looked up): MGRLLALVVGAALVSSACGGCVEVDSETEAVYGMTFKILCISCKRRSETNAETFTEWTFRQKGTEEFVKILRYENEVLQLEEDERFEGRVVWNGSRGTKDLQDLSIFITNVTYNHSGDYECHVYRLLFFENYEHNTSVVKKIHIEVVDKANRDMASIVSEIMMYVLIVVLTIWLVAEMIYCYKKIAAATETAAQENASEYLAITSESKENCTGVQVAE

[2] = biological target: T1, hNav1.7; assay: Electrophysiological assay (EP), voltage clamp on Syncropatch 384PE, CHO cells stably expressing Nav1.7; assay type: cell-based; details: holding potential −50 mV, 7.5 min compound incubation, read-out: EP_SP hNav1.7 EVO IC50
Source text: Example 93C. Electrophysiological Assay (EP) (In Vitro Assay)
Patch voltage clamp electrophysiology allows for the direct measurement and quantification of block of voltage-gated sodium channels (NaV's), and allows the determination of the time- and voltage-dependence of block which has been interpreted as differential binding to the resting, open, and inactivated states of the sodium channel (Hille, B., Journal of General Physiology (1977), 69: 497-515).
The following voltage clamp electrophysiology studies are performed on representative compounds using cells heterologously expressing Nav1.7 or Nav1.5 channels. cDNAsfor Nav1.7 (NM_002977) and Nav1.5 (AC137587) are stably expressed in Chinese Hamstr Ovary (CHO) cells and CHL (Chinese Hamster Lung) cells respectively. Sodium currents are measured in the whole-cell configuration using Syncropatch 384PE (Nanlon Technologies, Germany). 1NPC®-384 chips with custom medium resistance and single hole mode are used. Internal solution consists of (in mM): […], 10 […], 20 EGTA, and 10 Hepes (pH adjusted to 7.2); and external solution contains (in mM): 60 NMDG, 80 NaCl, 4 KCl, 1 MgCl2, 2 CaCl2, 2 D-Glucose monohydrate, 10 Hepes (pH adjusted to 7.4 with NaOH).
After system flushing, testing compounds are dissolved in external solution containing 0.1% Pluronic F-127. The chip is moved into the measuring head and the instrument primes the chip with external and internal solutions. 10 μl cells are added to the chip from a cell hotel, and a negative pressure of −50 mBar is applied to form a seal. Following treatment with seal enhancer solution and wash-off with external solution, negative pressure of −250 mbar is applied for 1 second to achieve the whole-cell configuration, followed by three washing steps in external solution. 20 μl of compounds is added to 40 μl in each well (1:3 dilution of compounds), and after mixing, 20 μl is removed so the volume is retained at 40 μl. After approximately 13 minutes recordings, 20 μl/well of 2 uM TTX, or 333 uM Tetracaine (for Nav1.5) is added to achieve full block.
For voltage protocol, an holding potential of −50 mV is applied during the whole experiment. A depolarizing step is applied to −10 mV for 10 ms, followed by a hyperpolarization step to −150 mV for 20 ms to allow channel recovery from inactivation. A second depolarizing step is applied from −150 mV to −10 mV for 10 ms, where currents are measured to derive blocking effects of compounds. Inhibition is determined based on 7.5 min of compound incubation.
Target sequence in this assay (Q15858 other isoform, or with tags, fused parts or gaps): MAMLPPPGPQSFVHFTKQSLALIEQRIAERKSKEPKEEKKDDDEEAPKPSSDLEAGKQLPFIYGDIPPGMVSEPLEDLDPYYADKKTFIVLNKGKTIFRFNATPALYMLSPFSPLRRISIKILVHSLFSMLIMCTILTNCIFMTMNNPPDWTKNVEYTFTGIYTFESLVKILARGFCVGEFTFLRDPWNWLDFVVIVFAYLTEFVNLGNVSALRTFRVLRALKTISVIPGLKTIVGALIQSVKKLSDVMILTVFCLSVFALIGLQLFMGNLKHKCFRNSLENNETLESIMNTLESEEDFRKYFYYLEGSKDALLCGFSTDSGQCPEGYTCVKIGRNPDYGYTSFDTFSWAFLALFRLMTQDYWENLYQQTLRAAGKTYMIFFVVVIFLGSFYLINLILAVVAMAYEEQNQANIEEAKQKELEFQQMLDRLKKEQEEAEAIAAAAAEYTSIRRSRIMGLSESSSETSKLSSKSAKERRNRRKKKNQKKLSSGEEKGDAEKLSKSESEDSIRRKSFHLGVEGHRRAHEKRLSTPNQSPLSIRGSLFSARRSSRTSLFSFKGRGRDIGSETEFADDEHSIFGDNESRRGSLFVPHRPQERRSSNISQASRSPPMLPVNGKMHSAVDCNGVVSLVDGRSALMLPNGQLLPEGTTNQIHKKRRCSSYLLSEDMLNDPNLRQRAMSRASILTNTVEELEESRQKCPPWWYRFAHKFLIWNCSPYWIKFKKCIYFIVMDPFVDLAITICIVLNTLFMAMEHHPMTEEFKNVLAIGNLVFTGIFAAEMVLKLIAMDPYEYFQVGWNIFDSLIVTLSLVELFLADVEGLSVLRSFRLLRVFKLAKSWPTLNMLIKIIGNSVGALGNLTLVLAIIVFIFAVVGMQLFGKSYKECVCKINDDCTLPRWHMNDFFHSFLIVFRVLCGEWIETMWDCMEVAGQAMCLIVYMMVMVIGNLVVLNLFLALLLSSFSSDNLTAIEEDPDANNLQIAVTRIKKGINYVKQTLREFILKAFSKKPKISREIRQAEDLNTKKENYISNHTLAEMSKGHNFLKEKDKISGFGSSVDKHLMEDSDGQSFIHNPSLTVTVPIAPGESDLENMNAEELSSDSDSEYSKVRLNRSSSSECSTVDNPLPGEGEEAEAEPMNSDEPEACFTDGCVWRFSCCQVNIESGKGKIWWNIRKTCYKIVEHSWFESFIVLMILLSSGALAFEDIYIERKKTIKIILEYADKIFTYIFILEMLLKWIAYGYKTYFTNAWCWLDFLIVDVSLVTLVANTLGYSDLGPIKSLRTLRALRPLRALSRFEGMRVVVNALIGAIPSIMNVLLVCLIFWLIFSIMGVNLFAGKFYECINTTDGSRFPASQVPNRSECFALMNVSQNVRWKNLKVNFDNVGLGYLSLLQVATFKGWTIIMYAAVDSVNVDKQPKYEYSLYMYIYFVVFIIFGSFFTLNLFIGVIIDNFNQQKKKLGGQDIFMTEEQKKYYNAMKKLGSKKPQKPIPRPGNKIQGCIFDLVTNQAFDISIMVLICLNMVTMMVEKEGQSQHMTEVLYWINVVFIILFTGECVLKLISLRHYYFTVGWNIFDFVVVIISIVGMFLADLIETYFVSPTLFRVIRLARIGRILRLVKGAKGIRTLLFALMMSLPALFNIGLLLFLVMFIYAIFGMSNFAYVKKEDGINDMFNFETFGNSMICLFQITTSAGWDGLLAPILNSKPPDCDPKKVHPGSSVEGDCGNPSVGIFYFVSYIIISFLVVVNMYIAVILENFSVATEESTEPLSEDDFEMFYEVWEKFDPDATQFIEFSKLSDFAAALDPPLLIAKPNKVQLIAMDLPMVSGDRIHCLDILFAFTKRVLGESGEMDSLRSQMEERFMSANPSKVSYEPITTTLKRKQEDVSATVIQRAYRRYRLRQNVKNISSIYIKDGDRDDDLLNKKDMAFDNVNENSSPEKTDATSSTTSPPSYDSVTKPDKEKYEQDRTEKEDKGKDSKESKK

SMILES	pIC50 [1]	pIC50 [2]
O=CO.[2H]C([2H])([2H])N([C@H]1C[C@@H](c2cccc(C(F)(F)F)c2)CC[C@@H]1Nc1cc(F)c(S(=O)(=O)Nc2ccncn2)cc1Cl)C([2H])([2H])[2H] [Example 9, 4-[[(1S,2S,4S)-2-[bis(trideuteriomethyl)amino]-4-[3-(trifluoromethyl)phenyl]-cyclohexyl]amino]-5-chloro-2-fluoro-N-pyrimidin-4-yl-benzenesulfonamide formate]	9.17	9.16
CN(C)[C@H]1C[C@@H](c2cccc(C(F)(F)F)c2)CC[C@@H]1n1ccc2cc(S(=O)(=O)Nc3ccncn3)c(F)cc21 [Example 10, 1-((1S,2S,4S)-2-(Dimethylamino)-4-(3-(trifluoromethyl)phenyl)cyclohexyl)-6-fluoro-N-(pyrimidin-4-yl)-1H-indole-5-sulfonamide formate]	7.59	8.56
Cc1cccc([C@H]2CC[C@H](Nc3cc(F)c(S(=O)(=O)Nc4ccncn4)cc3Cl)[C@@H](N(C)C)C2)c1 [Example 11, 5-Chloro-4-(((1S,2S,4S)-2-(dimethylamino)-4-(m-tolyl)cyclohexyl)amino)-2-fluoro-N-(pyrimidin-4-yl)benzenesulfonamide formate]	8.12	8.79
CN(C)[C@H]1C[C@@H](c2cc(C(F)(F)F)cc(C(F)(F)F)c2)CC[C@@H]1Nc1cc(F)c(S(=O)(=O)Nc2ccncn2)cc1Cl [Example 12, 4-(((1S,2S,4S)-4-(3,5-bis(trifluoromethyl)phenyl)-2-(dimethylamino)cyclohexyl)amino)-5-chloro-2-fluoro-N-(pyrimidin-4-yl)benzenesulfonamide]	9.33	9.27
CN(C)[C@H]1C[C@@H](c2cc(C(F)(F)F)cc(C(F)(F)F)c2)CC[C@@H]1Nc1cc(F)c(S(=O)(=O)Nc2ccncn2)cc1F [Example 13, 4-(((1S,2S,4S)-4-(3,5-bis(trifluoromethyl)phenyl)-2-(dimethylamino)cyclohexyl)amino)-2,5-difluoro-N-(pyrimidin-4-yl)benzenesulfonamide]	8.87	9.19
CN(C)[C@H]1C[C@@H](c2cccc(OC(F)F)c2)CC[C@@H]1Nc1cc(F)c(S(=O)(=O)Nc2ccncn2)cc1Cl [Example 14, 5-Chloro-4-[[(1S,2S,4S)-4-[3-(difluoromethoxy)phenyl]-2-(dimethylamino)-cyclohexyl]amino]-2-fluoro-N-pyrimidin-4-yl-benzenesulfonamide]	8.33	8.79
CN(C)[C@H]1C[C@@H](c2cc(F)cc(C(F)(F)F)c2)CC[C@@H]1Nc1cc(F)c(S(=O)(=O)Nc2ccncn2)cc1Cl [Example 15, 5-Chloro-4-[[(1S,2S,4S)-2-(dimethylamino)-4-[3-fluoro-5-(trifluoromethyl)phenyl]-cyclohexyl]amino]-2-fluoro-N-pyrimidin-4-yl-benzenesulfonamide formic acid]	9.05	9.21

The next lines start with the values.

pIC50 [1]	pIC50 [2]	SMILES
8.92	9.03	CN(C)[C@H]1C[C@@H](c2cccc(C(F)(F)F)c2F)CC[C@@H]1Nc1cc(F)c(S(=O)(=O)Nc2ccncn2)cc1Cl [Example 16, 5-chloro-4-(((1S,2S,4S)-2-(dimethylamino)-4-(2-fluoro-3-(trifluoromethyl)phenyl)-cyclohexyl)-amino)-2-fluoro-N-(pyrimidin-4-yl)benzenesulfonamide]
8.99	8.81	CN(C)[C@H]1C[C@@H](c2cc(C(F)(F)F)ccc2F)CC[C@@H]1Nc1cc(F)c(S(=O)(=O)Nc2ccncn2)cc1Cl [Example 17, 5-chloro-4-(((1S,2S,4S)-2-(dimethylamino)-4-(2-fluoro-5-(trifluoromethyl)phenyl)cyclohexyl)-amino)-2-fluoro-N-(pyrimidin-4-yl)benzenesulfonamide]
9.17	9.58	CN(C)[C@H]1C[C@@H](c2cccc(C3(C(F)(F)F)CC3)c2)CC[C@@H]1Nc1cc(F)c(S(=O)(=O)Nc2ccncn2)cc1Cl [Example 18, 5-chloro-4-(((1S,2S,4S)-2-(dimethylamino)-4-(3-(1-(trifluoromethyl)cyclopropyl)phenyl)-cyclohexyl)amino)-2-fluoro-N-(pyrimidin-4-yl)benzenesulfonamide]
8.87	9.17	CN(C)[C@H]1C[C@@H](c2cccc(OC(F)(F)F)c2)CC[C@@H]1Nc1cc(F)c(S(=O)(=O)Nc2ccncn2)cc1F [Example 19, 4-(((1S,2S,4S)-2-(dimethylamino)-4-(3-(trifluoromethoxy)phenyl)cyclohexyl)amino)-2,5-difluoro-N-(pyrimidin-4-yl)benzenesulfonamide]
8.03	8.13	CN(C)[C@H]1C[C@@H](c2cccc(-n3cccn3)c2)CC[C@@H]1Nc1cc(F)c(S(=O)(=O)Nc2ccncn2)cc1Cl [Example 20, 4-(((1S,2S,4S)-4-(3-(1H-pyrazol-1-yl)phenyl)-2-(dimethylamino)cyclohexyl)amino)-5-chloro-2-fluoro-N-(pyrimidin-4-yl)benzenesulfonamide formate]
7.89	8.10	CN(C)[C@H]1C[C@@H](c2cccc(-c3ccnn3C)c2)CC[C@@H]1Nc1cc(F)c(S(=O)(=O)Nc2ccncn2)cc1Cl [Example 21, 5-Chloro-4-(((1S,2S,4S)-2-(dimethylamino)-4-(3-(1-methyl-1H-pyrazol-5-yl)phenyl)-cyclohexyl)amino)-2-fluoro-N-(pyrimidin-4-yl)benzenesulfonamide]
7.67	7.71	CN(C)[C@H]1C[C@@H](c2cccc(-c3cnn(C)c3)c2)CC[C@@H]1Nc1cc(F)c(S(=O)(=O)Nc2ccncn2)cc1Cl [Example 22]
